Data: patent US20200268632A1, “ANTI-AGING AGENT AND ANTI-AGING METHOD” (priority 2017, published 2020)

Columns and labels:
[1] = Safety observation of the subjects during 24 weeks of ingestion (complaints, stool abnormality); assay type: in vivo, human; details: healthy males and females aged 50 to 70, 100 or 200 mg/daily oral, ingestion for 24 weeks
Experimental: (§1) Each group consisting of five healthy males and females aged 50 to 70 years in an unbiased age group ingested the above low dose capsule formulation once a day by 4 capsules for 24 weeks (total 10 subjects, a low dose group: 100 mg/daily ingestion). On the other hand, each group consisting of five healthy males and females aged 50 to 70 years in the unbiased age group ingested the above high dose capsule formulation once a day by 4 capsules for 24 weeks (total 10 subjects, a high dose group: 200 mg/daily ingestion). In order to conduct appropriate evaluations, those who had been regularly using medical products for chronic diseases, those who had been consuming healthy foods that may affect clinical research, and those who were currently participating in other clinical researches or clinical trials, or had participated in other clinical researches or clinical trials within the last three months were excluded from the subject for the evaluation. The capsule formulations were ingested at 10 am (between meals and fasting state) together with water or lukewarm water (oral administration).

melatonin = experiment: Evaluation of melatonin secretion promoting effect: melatonin concentration in plasma during 24 weeks of oral ingestion; assay type: in vivo, human; details: for Change rate (24 weeks-0 weeks) of melatonin concentration in the plasma: mean ± SD
Experimental: In order to confirm a change in the melatonin quantity before and after ingestion of the nicotinamide mononucleotide, a test was conducted on healthy males and females aged 50 to 70 years.
As a sample of Working Example 1, a capsule formulation containing the nicotinamide mononucleotide and starch (100 mg (low dose) and 200 mg (high dose) of the nicotinamide mononucleotide in 4 capsules) (manufactured by SHINKOWA PHARMACEUTICAL Co., Ltd.) was used.
as §1
Measurement of the melatonin quantity in plasma was conducted by requesting the measurement to an external public organization according to a usual method. FIGS. 2a to 2c indicates transitions of the melatonin concentration (pg/ml) in the plasma for 24 weeks. FIG. 2a represents the transitions of the whole subjects; FIG. 2b represents the transitions of the male subjects; FIG. 2c represents the transitions of the female subjects. FIGS. 3a to 3c indicates change rates (%) of the blood melatonin concentration up to 24 weeks when the nicotinamide mononucleotide was orally administered to the subjects for 24 weeks. FIG. 3a represents the change rates of the whole subjects; FIG. 3b represents the change rates of the male subjects; FIG. 3c represents the change rates of the female subjects. Further, Table 1 indicates the numerical values of the melatonin concentration (pg/ml) in the plasma before the ingestion of the nicotinamide mononucleotide (0 weeks) and after the ingestion of the nicotinamide mononucleotide (24 weeks). In addition, the numerical values represent mean values ±standard deviation.

## NC(=O)c1ccc[n+]([C@@H]2O[C@H](COP(=O)([O-])O)[C@@H](O)[C@H]2O)c1 [nicotinamide mononucleotide]
[1]
  unidentified complaints (abdominal pain, nausea, vomiting, headache) or stool abnormality: did not show any unidentified complaint
melatonin; female subjects, high dose group (200 mg/daily, oral)
  Change rate (24 weeks-0 weeks) of melatonin concentration in the plasma: 6.03 ± 5.90 pg/mL
melatonin; female subjects, low dose group (100 mg/daily, oral)
  Change rate (24 weeks-0 weeks) of melatonin concentration in the plasma: 2.21 ± 3.19 pg/mL
melatonin; healthy males and females aged 50 to 70, 100 or 200 mg/daily oral, up to 24 weeks
  effect of ingestion on melatonin concentrations in plasma (FIGS. 2a-2c, 3a-3c): increased the melatonin concentrations in plasma at the high change rates
melatonin; male subjects, high dose group (200 mg/daily, oral)
  Change rate (24 weeks-0 weeks) of melatonin concentration in the plasma: 2.86 ± 3.10 pg/mL
melatonin; male subjects, low dose group (100 mg/daily, oral)
  Change rate (24 weeks-0 weeks) of melatonin concentration in the plasma: 3.44 ± 3.57 pg/mL
melatonin; whole subjects, both the low dose group and the high dose group, 24 weeks, p<0.05
  melatonin concentration in the plasma after ingestion compared to before ingestion, statistical significance: a significant difference was observed
melatonin; whole subjects, high dose group (200 mg/daily, oral)
  Change rate (24 weeks-0 weeks) of melatonin concentration in the plasma: 4.45 ± 4.75 pg/mL
melatonin; whole subjects, low dose group (100 mg/daily, oral)
  Change rate (24 weeks-0 weeks) of melatonin concentration in the plasma: 2.82 ± 3.26 pg/mL
